Entries after “also recorded” stand apart in the source; their conditions may differ.
Assays:
[1] = system: NGF-induced bladder hyper-reflexia; conditions: rats; systemic administration; cited from earlier work
[2] = system: interstitial cystitis; conditions: patients with IC; oral therapy; cited from earlier work
[3] = system: interstitial cystitis; conditions: clinical case studies for IC; cited from earlier work
[4] = system: LPS-induced cystitis; test: Local bladder inflammation model, Example 2 (instillation), intravital microscopy of the bladder; type: in vivo, female BALB/c mice; conditions: LPS 150 μg/ml instilled 30 min, then instillation, BCP 100 mg/kg; for leukocyte rolling in bladder venules: FIG. 10; for leukocyte adhesion in bladder venules: FIGS. 9 and 12; for capillary perfusion quantified through functional capillary density (FCD): FIGS. 11 and 13
[5] = system: severe IC; conditions: patients with severe IC; intravesical DMSO; cited from earlier work
[6] = system: LPS-induced cystitis; test: Local (endotoxin-induced) bladder inflammation model, Example 1, intravital microscopy of the bladder; conditions: LPS 100 μg/ml instilled 30 min, then drug instillation (DMSO 40%)
[7] = system: LPS-induced cystitis; test: Local bladder inflammation model, Example 4 (oral Beta-C alone or with MSM), intravital microscopy; type: in vivo, female BALB/c mice; conditions: for leukocyte adhesion in bladder venules: FIGS. 14, 16; for capillary perfusion quantified through functional capillary density (FCD): FIGS. 15, 17
Procedure: Laparotomy was then performed to gain access to the bladder and to have a visual confirmation of bladder instillation success. […] This was then followed by an insertion of a P10 catheter into the urethra. […] LPS solution (150 μg/ml) was slowly instilled and held in the bladder for 30 minutes. The animal was then rotated on the heating pad at a halfway point to ensure that all sides of bladder were equally exposed to LPS.
Animals and local bladder inflammation model were as described hereinabove in Example 2. The groups were as follows:
In the oral gavage groups, the mice were treated with 100 mg/kg beta-C or 100 mg/kg beta-C in 100 mg/kg methylsulfonylmethane (MSM) by gavage. In groups other than the Healthy Animal Control administered oral beta-C, the administration was 60 minutes prior to LPS exposure. LPS (local) was provided as detailed hereinabove in Example 2. Intravesical MSM was provided similar to as detailed hereinabove in Example 1 for DMSO. Leukocyte adherence, leukocyte rolling and functional capillary density were measured using the techniques as described hereinabove in Example 2. Results were assessed using the statistical methods described hereinabove in Example 2.

[8] = system: LPS-induced cystitis; test: Pain assessment scoring (behavioural), Example 5; type: in vivo, female BALB/c mice
Procedure: (§1) Studies were carried out to investigate the anesthetic effect of oral administration of Beta-C. Animals and local bladder inflammation model were as described hereinabove in Example 2. The groups were as follows:
(§2) In the oral gavage groups, the mice were treated with 100 mg/kg beta-C by gavage. In the LPS group administered oral beta-C, the administration was 60 minutes prior to LPS exposure. LPS (local) was provided as detailed hereinabove in Example 2.
Healthy animals were scored behaviourally to set an individual baseline for each specimen. Animals were then anesthetized with isoflurane and given LPS instillation to induce cystitis-like conditions in bladder. After the induction, animals were then woken up and allowed to normally explore/feed themselves in their cage under observation. Changes in behaviour and appearance (i.e. breathing rate, posture, motor activity, eye opening) were then scored again. Each behavioural parameter received a possible maximum score of 10, totaling to a possible maximum of 40. The minimum score possible is a 0, which implies that the parameter is unaffected as a pre-existing condition. Breathing Rate—each decrease in cycle warrants an increase in score. Opening of the eyes—0 complete opening, 5 half opening, 10 fully closed, and 2 and 7 are intermediate positions. Posture—no change is 0, full rounded back OR limp is 10. Intermediate postures gain intermediate scores. Motor activity—activity (exploring, moving, grooming) within 20 seconds. e.g. no movement for 10 seconds (=50%)=5 points; no movement for 2 seconds (=10%)=1 point. The scoring system is based on that reported by Eschalier et al.^37 but has the additional parameter of motor activity.

[9] = system: LPS-induced cystitis; test: Electronic von Frey aesthesiometry, Example 5; type: in vivo, female BALB/c mice; conditions: oral BCP 100 mg/kg 60 minutes prior to LPS; T0 vs T1; FIG. 26
Procedure: as §1, §2
This was a quantified pain assessment that measures the amount of force applied in grams, before an animal reacts (e.g. withdraws) to the noxious stimulus. This quantification allows for accurate detection of pain relief effectiveness of a treatment. Healthy animals were scored before any treatments or cystitis induction to set an individual baseline for each specimen. The animals were also scored after the cystitis was induced and the treatment effect could be measured. Each individual animal was compared to itself before the induction, as well as a summarized group comparison was performed.

[10] = system: inflammatory and neuropathic pain; conditions: mouse models of inflammatory and neuropathic pain; cited from earlier work
[11] = compared with procaine; cited from earlier work
[12] = system: LPS-induced cystitis; test: Systemic (endotoxemia-induced) bladder inflammation model, intravital microscopy of the bladder; conditions: LPS 10 mg/kg i.p.
[13] = healthy animals (no LPS) administered oral Beta-C 100 mg/kg

Compound: CCCCC/C=C\C/C=C\C/C=C\C/C=C\CCCC(=O)NCCO [AEA, N-arachidonoylethanolamine]
- NGF-induced bladder hyper-reflexia and reduction of micturition threshold [1]: attenuated

Compound: pentosan polysulfate [PPS]
- effect of PPS treatment (proportion of patients) [2]: limited to only a quarter of patients

Compound: CS(C)(=O)=O [Methylsulfonylmethane]
- effective treatment, number of patients suffering from IC [3]: 4 out of 6

Compound: C[S+](C)[O-] [DMSO, Dimethyl sulfoxide]
- leukocyte rolling in bladder venules [4]: did not improve leukocyte rolling
- leukocyte adhesion in bladder venules [4]: retained a high level of activated leukocytes
- capillary perfusion quantified through functional capillary density (FCD) [4]: did improve perfusion, it did not return perfusion to the levels observed in healthy control animals
- treatment failure rate [5]: high failure rate
- leukocyte adhesion in bladder venules ([6]; FIG. 6): did not significantly decrease leukocyte adherence
- leukocyte rolling in bladder venules ([6]; FIG. 7): did not show any significant difference when compared to the endotoxemia group
- capillary perfusion quantified through functional capillary density (FCD) ([6]; FIG. 8): did improve perfusion, it did not return perfusion to the levels observed in healthy control animals

Compound: CCCCCCCCCCCCCCCC(=O)NCCO [PEA, N-palmitoylethanolamide]
- NGF-induced bladder hyper-reflexia and reduction of micturition threshold [1]: attenuated

Compound: C=C1CC/C=C(\C)CC[C@@H]2[C@@H]1CC2(C)C [Beta-C, beta-caryophyllene]
- leukocyte rolling in bladder venules [4]: restored the level of leukocyte levels to that of control animals
- leukocyte adhesion in bladder venules [4]: significantly decreased the number of adhering leukocytes back to the level of healthy control animals
- leukocyte adhesion in bladder venules ([4]; listed as BCP): decrease in leukocyte adherence comparable to groups instilled with various levels of DMSO
- capillary perfusion quantified through functional capillary density (FCD) [4]: highest overall values for FCD
- capillary perfusion quantified through functional capillary density (FCD) ([4]; listed as BCP): restored perfusion to levels observed in healthy control animals; also recorded: significant improvement in FCD
- leukocyte adhesion in bladder venules ([7]; LPS-induced cystitis, oral gavage 100 mg/kg Beta-C (with or without 100 mg/kg MSM) 60 minutes prior to LPS): significant decrease in the number of adherent leukocytes
- capillary perfusion quantified through functional capillary density (FCD) ([7]; LPS-induced cystitis, oral gavage 100 mg/kg Beta-C (with or without 100 mg/kg MSM) 60 minutes prior to LPS, listed as BCP): no significant differences were observed in the treatment group; also recorded: did not significantly improve FCD
- leukocyte adhesion in bladder venules [7, 13]: did not produce any significant changes in leukocyte adherence
- capillary perfusion quantified through functional capillary density (FCD) [7, 13]: significant improvement in functional capillary density
- capillary perfusion quantified through functional capillary density (FCD) ([7]; healthy animals (no LPS) administered oral Beta-C 100 mg/kg, listed as BCP): significant improvement in FCD
- behavioural results for eye opening ([8]; oral BCP 100 mg/kg 60 minutes prior to LPS, vs untreated LPS, FIG. 22): significant improvement
- behavioural results for motor activity ([8]; oral BCP 100 mg/kg 60 minutes prior to LPS, vs untreated LPS, FIG. 23): Significant improvements
- behavioural results for posture ([8]; oral BCP 100 mg/kg 60 minutes prior to LPS, vs untreated LPS, FIG. 24): Significant improvements
- total composite score of behavioural results (behavioural pain score) ([8]; oral BCP 100 mg/kg 60 minutes prior to LPS, vs untreated LPS, FIG. 25): significant reduction in behavioural pain score
- behavioural results for breathing rate ([8]; oral Beta-C 100 mg/kg 60 minutes prior to LPS, T1 vs untreated LPS, FIG. 21): significant reduction in breathing rate
- amount of force applied via electronic von Frey aesthesiometer before a response (withdrawal threshold) [9]: significant improvement in withdrawal threshold
- analgesic and anti-inflammatory effects [10]: analgesic and anti-inflammatory effects
- local anesthetic actions [11]: dose-dependent local anesthetic actions comparable to procaine
- leukocyte adhesion in bladder venules ([12]; 100 mg/kg Beta-C injected 15 min after LPS, IVM two hours after treatment, vs LPS, FIG. 1): significantly decreased the number of adhering leukocytes
- capillary perfusion quantified through functional capillary density (FCD) ([12]; 100 mg/kg Beta-C injected, FIG. 3): restored perfusion to levels observed in healthy control animals
- leukocyte rolling in bladder venules ([12]; 100 mg/kg Beta-C injected, vs endotoxemia group, FIG. 2): did not significantly alter the number of rolling leukocytes
